Each structure is given as a SMILES string.

Consider five compounds from patent US20040077602A1, “Mixture composition for controlling ectoparasites” (Meiji Seika Kaisha, Ltd., priority 2002, published 2004).

The subject of the test is Dermanyssus gallinae. The test can be described thus: Miticidal effect against Dermanyssus gallinae (Pasteur pipette residual contact test, Test Example 1). In kind it is in vivo. Conditions: single agent, sucking adult mites, 25° C. An excerpt: Miticidal Effect Against Dermanyssus gallinae
The tip of a Pasteur pipette was sealed with Parafilm, and a sample compound diluted with acetone to a designated concentration was poured into the pipette from its top. The Parafilm in the tip of the pipette was removed one min after the pouring to discharge the test solution, and the pipette was air dried. Thereafter, an absorbent cotton was inserted into the upper end of the pipette, and sucking adult mites of Dermanyssus gallinae were released in the pipette. The tip of the pipette was sealed with Hematoseal, and the pipette was then placed in a desiccator containing a saturated ammonium sulfate solution in its bottom and was stored under fully darkened conditions at 25° C. The mites were observed under a stereomicroscope 4 hr after and 24 hr after the treatment to judge whether the mites were dead or survived, followed by determination of the miticidal rate (%).

As for `CC1(C)C(C=C(Cl)Cl)C1C(=O)OCc1cccc(Oc2ccccc2)c1` (stereo not shown) [Permethrin, permethrin], for the setting “50 ppm”, the “Miticidal rate 4 hr after treatment” value was found to be 0% and the “Miticidal rate 24 hr after treatment” value was 0%.

In the case of `CC1(C)C(C=C(Cl)c2ccc(Cl)cc2)C1C(=O)OC(C#N)c1ccc(F)c(Oc2ccccc2)c1` (stereo not shown) [Flumethrin, flumethrin], under “50 ppm”, the “Miticidal rate 4 hr after treatment” value came to 5% and the “Miticidal rate 24 hr after treatment” value was 10%.

In the case of `COC(=O)Oc1c(C)c(C)nc2ccc(F)c(F)c12` [Compound 25, 2,3-dimethyl-4-methoxycarbonyloxy-5,6-difluoroquinoline], under “5 ppm”, the “Miticidal rate 4 hr after treatment” value is on record as 70% and the “Miticidal rate 24 hr after treatment” value amounted to 80%.

As for `CCc1nc2ccc(F)c(F)c2c(OC(=O)C2CC2)c1C` [Compound 2, 2-ethyl-3-methyl-4-cyclopropanecarbonyloxy-5,6-difluoroquinoline], for the setting “5 ppm”, the “Miticidal rate 4 hr after treatment” value is 40% and the “Miticidal rate 24 hr after treatment” value is recorded as 50%.

Take `CC1(C)C(C=C(Cl)Cl)C1C(=O)OC(C#N)c1ccc(F)c(Oc2ccccc2)c1` (stereo not shown) [Cyfluthrin, cyfluthrin]: under “50 ppm”, the “Miticidal rate 4 hr after treatment” value is 0% and the “Miticidal rate 24 hr after treatment” value came out at 0%.
